Results on 6 molecules are retold here after patent US20200361895A1, “NOVEL SULFONAMIDE CARBOXAMIDE COMPOUNDS” (Inflazome Limited, priority 2017, published 2020).

pIC50: −log10 of the molar value. Where a name gives a salt, the structure may show the parent alone. Some results are limits rather than exact numbers.

Data set [1] has as its target T1, NLRP3 (Homo sapiens, UniProt Q96P20). The data set is described as follows: THP-1 cells pyroptosis assay (LPS + nigericin, resazurin readout; THP IC50). The format is cell-based. Also on record: Seed THP-1 cells (25,000 cells/well) containing 1.0 μg/ml LPS in 40 μl of RPMI medium; host or cells: THP-1 cells. Put shortly:
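IC50 from 4-parameter fit of resazurin fluorescence (100 μM, 1-2 hrs), reflecting surviving cells after pyroptosis. LPS-primed (1 μg/ml) THP-1 cells in FBS-free RPMI got compound for 3 hrs at 37° C (top 10 μM, half-log, 8 points), then nigericin 5 μM for 1 hr.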

A short description of data set [2]: PK protocol, intravenous administration. The class given is in vivo, male Sprague Dawley rats. Conditions: male, Sprague Dawley, plasma, dose 1 mg/kg, rat; for Vd: read-out: Vdss. The procedure: (§1) Pharmacokinetic parameters were determined in male Sprague Dawley rats (Charles River, UK, 250-350 g; or Vital River Laboratory Animal Technology Co Ltd, Beijing, China, 7-9 weeks old). Animals were individually housed during the study and maintained under a 12 h light/dark cycle. Animals had free access to food and water.
(§2) For intravenous administration, compounds were formulated as a solution in water or DMSO:PBS [10:90] in 2 mL/kg dosing volume and administered via tail vein. For oral administration, compounds were formulated as a solution in DMSO:water [10:90] in 5 mL/kg dosing volume and administered orally.
(§3) Serial blood samples (about 120-300 μL) were taken from each animal at each of 8 time-points post dose (0.083, 0.25, 0.5, 1, 2, 4, 8 and 24 h) or at each of 12 time-points post dose (0.03, 0.1, 0.17, 0.25, 0.5, 1, 2, 4, 6, 8, 12 and 24 h) or pre-dose and at each of 9 time-points post dose (0.25, 0.5, 1, 2, 4, 6, 8, 12 and 24 h). Samples were held on ice for no longer than 30 minutes before centrifugation (10,000 rpm (8,385 g) for 3 minutes; or 5,696 rpm (3,000 g) for 15 minutes) for plasma generation. Plasma was frozen on dry ice prior to bioanalysis. PK parameters were generated from LC-MS/MS data using Dotmatics or Phoenix WinNonlin 6.3 software.

Data set [3] addresses T1, NLRP3. The data set is described as follows: Human whole blood IL1β release assay (LPS + nigericin, AlphaLisa IL-1β; HWB IC50). The format is cell-based. Also on record: Human whole blood in Li-heparin tubes was obtained from healthy donors from a volunteer donor panel; from tissue; host or cells: human whole blood from healthy donors. The note with it: IL-1β release. Summed up: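 IL-1β in plasma supernatant quantified by AlphaLisa after nigericin (10 μM final, 1 h, 37 °C) triggering of human whole blood that had been preincubated 3 h with LPS (1 μg/ml) plus compound (half-log, 8 points, from 10 μM). IC50 by variable-slope four-parameter regression.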

A short description of data set [4]: PK protocol, oral administration. The format is in vivo. The note with it: rat, male Sprague Dawley rats, 3 mg/kg, solution in DMSO:water [10:90], plasma. The procedure: as §1, §2, §3

T1 sequence (Q96P20 whole entry): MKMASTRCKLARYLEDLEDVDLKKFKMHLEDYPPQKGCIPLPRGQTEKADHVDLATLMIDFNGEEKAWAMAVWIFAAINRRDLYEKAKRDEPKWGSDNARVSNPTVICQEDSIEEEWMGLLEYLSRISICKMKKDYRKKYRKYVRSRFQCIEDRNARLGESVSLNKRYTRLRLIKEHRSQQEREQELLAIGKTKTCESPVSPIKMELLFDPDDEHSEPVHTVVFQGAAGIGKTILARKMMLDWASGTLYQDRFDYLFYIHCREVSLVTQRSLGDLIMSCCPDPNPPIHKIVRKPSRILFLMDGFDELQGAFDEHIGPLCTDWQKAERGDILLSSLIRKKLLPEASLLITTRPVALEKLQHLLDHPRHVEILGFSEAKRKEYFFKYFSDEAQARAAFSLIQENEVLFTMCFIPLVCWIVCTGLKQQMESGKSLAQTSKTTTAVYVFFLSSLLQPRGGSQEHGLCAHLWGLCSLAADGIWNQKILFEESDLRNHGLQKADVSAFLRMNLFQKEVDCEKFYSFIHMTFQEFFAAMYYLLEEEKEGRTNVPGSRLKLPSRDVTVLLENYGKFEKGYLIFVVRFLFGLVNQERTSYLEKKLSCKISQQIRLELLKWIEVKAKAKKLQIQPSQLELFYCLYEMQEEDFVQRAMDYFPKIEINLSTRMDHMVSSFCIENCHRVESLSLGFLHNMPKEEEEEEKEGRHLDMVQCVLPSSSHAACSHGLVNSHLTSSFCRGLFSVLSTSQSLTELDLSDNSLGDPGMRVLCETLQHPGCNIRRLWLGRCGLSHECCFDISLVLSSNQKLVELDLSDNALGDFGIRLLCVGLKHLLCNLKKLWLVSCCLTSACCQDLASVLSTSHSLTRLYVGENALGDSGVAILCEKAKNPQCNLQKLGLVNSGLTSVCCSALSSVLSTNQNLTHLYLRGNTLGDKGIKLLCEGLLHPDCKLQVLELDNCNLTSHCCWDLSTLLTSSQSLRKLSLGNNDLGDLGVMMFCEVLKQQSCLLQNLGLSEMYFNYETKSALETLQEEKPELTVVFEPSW

Turning to `COc1cc(-c2ccc3c(c2NC(=O)NS(=O)(=O)c2ccn(C(C)(C)CN(C)C)n2)CCC3)ccn1` [Example 69, 1-(1-(Dimethylamino)-2-methylpropan-2-yl)-N-((5-(2-methoxypyridin-4-yl)-2,3-dihydro-1H-inden-4-yl)carbamoyl)-1H-pyrazole-3-sulfonamide], on NLRP3 [1], the negative logarithm of the IC50 (pIC50) was at least 6.30. Further, in data set [2], the AUC was 896 ng·h/mL, the clearance amounted to 19 mL/min/kg, the half-life is 5.8 h and the Vd was 0.78 L/kg. For the same molecule, the negative-log IC50 (pIC50) on NLRP3 [3] is at least 6.30. Besides, in data set [4], the AUC worked out at 504 ng·h/mL, the CL/F stood at 112 mL/min/kg, the peak level (Cmax) was 113 ng/mL and the time of peak concentration (Tmax) turned out to be 0.5 h. In addition, in data set [4], the half-life was 5 h and the bioavailability is 19%.

On to `COc1cc(-c2ccc3c(c2NC(=O)NS(=O)(=O)c2ccn(C4CC4)n2)CCC3)ccn1` [Example 221, 1-Cyclopropyl-N-((5-(2-methoxypyridin-4-yl)-2,3-dihydro-1H-inden-4-yl)carbamoyl)-1H-pyrazole-3-sulfonamide, sodium salt], for which, on NLRP3 [1], the pIC50 was at least 6.30. Moreover, in data set [2], the AUC worked out at 65400 ng·h/mL, the clearance came to 0.39 mL/min/kg, the half-life is 15 h and the Vd came out at 0.36 L/kg. Moreover, on NLRP3 [3], the negative logarithm of the IC50 (pIC50) is at least 6.30. In data set [4], the exposure (AUC) is 136000 ng·h/mL, the CL/F came out at 0.48 mL/min/kg, the highest concentration (Cmax) was determined as 7220 ng/mL and the Tmax is 0.75 h. In data set [4], this molecule had a half-life of 12 h and a bioavailability of 83%.

Consider `CC(C)n1ccc(S(=O)(=O)NC(=O)Nc2c(-c3ccnnc3)ccc3c2CCC3)n1` [Example 223, 1-Isopropyl-N-((5-(Pyridazin-4-yl)-2,3-dihydro-1H-inden-4-yl)carbamoyl)-1H-pyrazole-3-sulfonamide, sodium salt], for which the negative logarithm of the IC50 (pIC50) on NLRP3 [1] is at least 6.30. Moreover, in data set [2], the AUC is 1740 ng·h/mL, the clearance stood at 9.6 mL/min/kg, the half-life was 0.9 h and the Vd stood at 0.31 L/kg. The pIC50 at NLRP3 [3] was at least 6.30.

In the case of `COc1cc(-c2ccc3c(c2NC(=O)NS(=O)(=O)c2ccn(C(C)C)n2)CCO3)ccn1` [Example 224, 1-Isopropyl-N-((5-(2-methoxypyridin-4-yl)-2,3-dihydrobenzofuran-4-yl)carbamoyl)-1H-pyrazole-3-sulfonamide, sodium salt], the pIC50 at NLRP3 [1] is at least 6.30. For the same molecule, in data set [2], the AUC turned out to be 6480 ng·h/mL, the clearance was 2.6 mL/min/kg, the half-life is 3.2 h and the Vd was found to be 0.47 L/kg. For the same molecule, the negative logarithm of the IC50 (pIC50) at NLRP3 [3] was at least 6.30.

Regarding `CC(C)n1cc(S(=O)(=O)NC(=O)Nc2c(-c3ccnc(C#N)c3)ccc3c2CCC3)nn1` [Example 230, N-((5-(2-Cyanopyridin-4-yl)-2,3-dihydro-1H-inden-4-yl)carbamoyl)-1-isopropyl-1H-1,2,3-triazole-4-sulfonamide, sodium salt], the negative logarithm of the IC50 (pIC50) at NLRP3 [1] is at least 6.30. Further, in data set [2], the exposure (AUC) is 1950 ng·h/mL, the clearance was found to be 8.5 mL/min/kg, the half-life was 1.3 h and the Vd was 0.24 L/kg. For the same molecule, the negative-log IC50 (pIC50) on NLRP3 [3] is at least 6.30.

As to `COc1cc(-c2ccc3c(c2NC(=O)NS(=O)(=O)c2ccc(CN(C)C)cc2)CCC3)ccn1` [Example 251, 4-((Dimethylamino)methyl)-N-((5-(2-methoxypyridin-4-yl)-2,3-dihydro-1H-inden-4-yl)carbamoyl)benzenesulfonamide, sodium salt], on NLRP3 [1], the negative logarithm of the IC50 (pIC50) is at least 6.30. In data set [2], the area under the curve (AUC) was found to be 1260 ng·h/mL, the clearance amounted to 13.3 mL/min/kg, the half-life was 2.9 h and the Vd was determined as 2.12 L/kg. On NLRP3 [3], the negative-log IC50 (pIC50) was at least 6.30.

The term pIC50 denotes −log10 of the IC50, conventionally taken in molar units. One may read the AUC as the area under the concentration-time curve, a measure of exposure. The low end stands for low exposure, the high end for high exposure. What is called clearance is the volume of plasma or blood freed of the substance per unit of time. A high value points to a high capacity for elimination. The term half-life denotes how long it takes for the measured level to halve. Lower therefore signals fast loss. The CL/F is clearance divided by bioavailability, as obtained after extravascular dosing. The term Cmax denotes the highest concentration seen after dosing. Broadly, the Tmax is the time at which the peak concentration occurs. The bioavailability is dose-corrected exposure relative to a reference, in per cent.
